Patent US20110065715A1, “Nogo Receptor Binding Small Molecules to Promote Axonal Growth” (Yale University, priority 2007, published 2011)
“Also recorded” adds a separate entry of the source. Read-outs that look alike come from different tables or passages of the source.

Columns and labels:
[1] = test system: embryonic day 13 or 14 chick DRG neurons; experiment: Neurite outgrowth assay, E13/E14 chick DRG neurons; assay type: cell-based, chicken; conditions: 20 μM; for neurite outgrowth compared to the DMSO control: E13 or E14 chick DRG, two to four hours
Description: (§1) To test the ability of the “hit” compounds to promote neurite outgrowth, a neurite outgrowth assay was performed using each of these compounds. Dorsal root ganglia (DRG) were removed from chicken embryos at embryonic day 13 or 14, dissociated by trituration after 30 min incubation in 0.5% collagenase, and plated on laminin-coated 96-well tissue culture plates in DMEM with 10% fetal bovine serum containing 20 μM of the test compound. After two to four hours of incubation, the cells were fixed in 4% formaldehyde in phosphate buffered saline (PBS), washed in PBS, and blocked for 1 hour in PBS with 0.1% triton X-100 and 10% goat serum. The cells were incubated in rabbit anti-beta-3-tubulin (1:500) in PBS overnight and then washed 3 times with PBS. The cells were then incubated in Alexa-fluor 488 goat anti-rabbit IgG (1:500) for 6 hrs, washed with PBS, and imaged at 10× with an ImagExpress automated microscope (Molecular Devices, Inc.). Neurite outgrowth was measured with AcuityExpress software (Molecular Devices, Inc.).

[2] = test system: Nogo receptor:Nogo ligand (Nogo 66) interaction; experiment: ELISA assay of NgR:Nogo ligand interaction; assay type: binding
Description: In the ELISA assay, 96 well streptavidin coated plates were blocked overnight with PBS and 10 mg/ml bovine serum albumin (BSA) (200 μl). The wells were then coated for 1.5 hours with sonicated HBH (Hanks Balanced Salt Solution/0.1 M HEPES/1 mg/ml BSA) containing Nogo 66 (B66) (0.5 μl of 10 mM/10 ml HBH) (50 μl) and then washed 4 times with 200 μl of HBH. The solution containing the inhibitor compound (50 μl in HBH) was added along with 1% FcNgR solution in HBH (50 μl), and the solution was incubated for 2 hours. The wells were washed 5 times with HBH. Alkaline phosphatase (AP) conjugated mouse anti-rat antibody (1:2500) was added and the wells were then washed 5 times with HBH. Colorimetric alkaline phosphatase substrate was added for 30 minutes and the plate was read with the Perkin Elmer Victor 5 instrument. (FIG. 10A). […] (FIG. 10C).

[3] = test system: embryonic day 8 (E8) chick DRG neurons; experiment: Neurite outgrowth assay, E8 chick DRG neurons (no Nogo receptor expressed); assay type: cell-based, chicken; conditions: Nogo receptor not yet expressed
Description: as §1
In another experiment to verify the mechanism of action, a neurite outgrowth assay was performed as described above except the Dorsal root ganglia (DRG) were removed from chicken embryos at embryonic day 8 instead of day 13. At day 8, Nogo receptor is not yet expressed in the DRG. The compounds KM, HTS, 555, 5470, 585 were administered as described above and neurite outgrowth was measured. […] (FIG. 21)

[4] = test system: Nogo receptor:Nogo ligand (Nogo 66) interaction; experiment: DELFIA assay of Fc-NgR:Ng66 interaction; assay type: binding
Description: ELISA and DELFIA assays were then performed to evaluate the ability of the small molecules that were identified as “hits” in the AlphaScreens to inhibit the interaction of NgR and Nogo ligand. In the DELFIA Assay, 96 well streptavidin coated plates were blocked overnight with PBS and 10 mg/ml bovine serum albumin (BSA) (200 μl). The wells were then coated for 1.5 hours with sonicated HBH (Hanks Balanced Salt Solution/0.1 M HEPES/1 mg/ml BSA) containing Nogo 66 (B66) (0.5 μl of 10 mM/10 ml HBH) (50 μl) and then washed 4 times with 200 μl of HBH. The solution containing the inhibitor compound (50 μl in HBH) was added along with 1% FcNgR solution in HBH (50 μl), and the solution was incubated for 2 hours. The wells were washed 5 times with HBH. Alkaline phosphatase (AP) conjugated mouse anti-rat antibody (1:2500) was added and the wells were then washed 5 times with DELFIA wash buffer. The Europium (Eu) anti-mouse antibody was then added in Perlin Elmer Assay, buffer (100 μg/ml) (150 μl) and the wells were again washed 5 times with DELFIA wash buffer. The enhancer solution was added (100 μl) and the plate was read with the Perkin Elmer Victor 5 instrument 15 minutes later. (FIG. 10B) The results from the DELFIA assay indicate that compounds HTS08871, KM08071, and 503749, as well as the positive control, NEP33, inhibit the Nogo receptor:Nogo ligand (Nogo 66) interaction. (FIGS. 10D and 11A-C).

[5] = test system: embryonic day 13 (E13) chick DRG neurons; experiment: Competition neurite outgrowth assay with soluble FcNgR; assay type: cell-based, chicken; conditions: for outgrowth promoting effect when coadministered with FcNgR: with 7.5 μM FcNgR, 3.5 hours
Description: as §1
To further verify the mechanism of how the compounds are promoting neurite outgrowth, a competition assay was performed. […] (FIG. 12B). compounds KM, HTS or 555 were then coadministered with 7.5 μM of FcNgR. […] (FIGS. 14A-B and 17B).

Fc-NgR:Ng66 interaction = experiment: AlphaScreen of Fc-NgR:Ng66 interaction; assay type: binding
Sequence of Fc-NgR:Ng66 interaction (Q99M75 27-310 limits assumed): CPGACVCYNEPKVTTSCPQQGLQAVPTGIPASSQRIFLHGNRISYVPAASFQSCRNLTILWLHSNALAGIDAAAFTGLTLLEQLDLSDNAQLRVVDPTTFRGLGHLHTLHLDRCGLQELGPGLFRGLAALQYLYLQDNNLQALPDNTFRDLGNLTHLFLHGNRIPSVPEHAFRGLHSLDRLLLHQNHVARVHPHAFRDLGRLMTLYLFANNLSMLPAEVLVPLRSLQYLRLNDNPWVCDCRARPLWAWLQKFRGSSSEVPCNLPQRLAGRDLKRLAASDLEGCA
Excerpt: An AlphaScreen assay was used to screen for small molecule inhibitors of the Nogo receptor-Nogo ligand interaction. The AlphaScreen assay involves matching Alpha Donor (Streptavidin) and Acceptor beads (Protein A). (FIG. 1) These beads are coated with a layer of hydrogel to provide functional groups for bioconjugation. […] However, if a biological reaction brings the Alpha Donor and Acceptor beads into close proximity, upon laser excitation, a cascade of chemical reactions produces a greatly amplified signal. (FIG. 3) Upon laser excitation, a photosensitizer inside the Donor bead converts ambient oxygen to a more excited singlet state. The singlet state oxygen molecules diffuse to produce a chemiluminescent reaction in the Acceptor bead, leading to light emission. In the absence of a specific biological interaction, the singlet state oxygen molecules produced by the Donor bead go undetected without the close proximity of the Acceptor bead.
Beads conjugated to streptavidin were used to bind biotinylated Nogo 66 (Ng66) (the 66 amino acid inhibitory domain in the carboxyl region of Nogo ligand), and beads conjugated to Protein A were used to bind an Fc-Nogo receptor (NgR) fusion protein. (FIG. 2) By virtue of the interaction of Ng66 and Fc-NgR, the acceptor beads and donor beads were brought into proximity, yielding a signal upon excitation. […] (FIGS. 4 and 6). […]

| Compound | neurite outgrowth compared to the DMSO control [1] | effect on neurite outgrowth of day 8 DRGs [3] | also measured |
| --- | --- | --- | --- |
| CN(C)c1ccc(Cc2ccc(N(C)C)cc2)cc1 [BTB11222, N1,N1-dimethyl-4-[4-(dimethylamino)benzyl]aniline] | promoted neurite outgrowth |  |  |
| N.N.[Cl][Pt][Cl] [Cisplatin] |  |  | inhibition of Nogo receptor:Nogo 66 interaction, ELISA [2]: inhibit |
| COc1ccc2c(c1)NC(c1ccc(N(C)C)cc1)c1cccn1-2 (centres unmarked) [HTS, 4′-(7-methoxy-4,5-dihydropyrrolo[1,2-a]quinoxalin-4-yl)-N,N-dimethylaniline] | promoted neurite outgrowth | no effect | inhibition of Nogo receptor:Nogo 66 interaction signal, DELFIA [4]: dose dependent signal inhibition; inhibition of Nogo receptor:Nogo 66 interaction signal, DELFIA ([4]; listed as HTS08871): inhibit; neurite outgrowth in the absence of exogenous FcNgR [5]: promoted neurite outgrowth; outgrowth promoting effect when coadministered with FcNgR [5]: inhibited; also recorded: blocking |
| N#C/C(=C\c1ccc(C#Cc2ccccc2)cc1)C(=O)c1ccc(Cl)cc1 [KM, 2-(4-chlorobenzoyl)-3-[4-(2-phenyleth-1-ynyl)phenyl]acrylonitrile] | promoted neurite outgrowth | no effect | basal neurite outgrowth, E13 chick DRG neurons [1]: neurite outgrowth promoting effect; inhibition of Nogo receptor:Nogo 66 interaction signal, DELFIA [4]: dose dependent signal inhibition; inhibition of Nogo receptor:Nogo 66 interaction signal, DELFIA ([4]; listed as KM08071): inhibit; neurite outgrowth in the absence of exogenous FcNgR [5]: promoted neurite outgrowth; outgrowth promoting effect when coadministered with FcNgR [5]: inhibited; also recorded: blocking |
| Cc1nccc(-c2cccc(N/N=C(\C#N)C(=O)c3ccc(Cl)cc3)c2)n1 [KMO2502] | inhibited neurite outgrowth |  |  |
| N#Cc1ccc(Cn2c(=O)sc3ccccc32)cc1 [compound 535, 4-[(2-oxo-1,3-benzothiazol-3(2H)-yl)methyl]benzonitrile] | promoted neurite outgrowth |  |  |
| CN(C)c1ccc(C2C=Cc3ccccc3N2C(=O)c2ccccc2)cc1 (centres unmarked) [compound 536, 4-(1-benzoyl-1,2-dihydro-2-quinolinyl)-N,N-dimethylaniline] | promoted neurite outgrowth |  |  |
| CCOC(=O)C1=C(C)N=C2SCC(=O)N2C1c1ccc(N(C)C)cc1 (centres unmarked) [compound 555, ethyl 5-[4-(dimethylamino)phenyl]-7-methyl-3-oxo-2,3-dihydro-5H-[1,3]thiazolo[3,2-a]pyrimidine-6-carboxylate] | promoted neurite outgrowth | no effect | basal neurite outgrowth, E13 chick DRG neurons [1]: neurite outgrowth promoting effect; neurite outgrowth in the absence of exogenous FcNgR [5]: promoted neurite outgrowth; outgrowth promoting effect when coadministered with FcNgR [5]: inhibited; also recorded: blocking |
| Cc1oc2ccc(O)cc2c1C(=O)c1ccc(Cl)cc1 [compound 585, (4-chlorophenyl)(5-hydroxy-2-methyl-1-benzofuran-3-yl)methanone] | promoted neurite outgrowth | no effect | basal neurite outgrowth, E14 chick DRG neurons [1]: neurite outgrowth promoting effect |
| CN1C(=O)C(O)(CC(=O)c2ccc(Cl)cc2)c2ccccc21 (centres unmarked) [compound 592, 3-[2-(4-chlorophenyl)-2-oxoethyl]-3-hydroxy-1-methyl-1,3-dihydro-2H-indol-2-one] | inhibited neurite outgrowth |  |  |
| CCN1C(=O)C(O)(CC(=O)c2ccc(Cl)cc2)c2ccccc21 (centres unmarked) [compound 664, 3-[2-(4-chlorophenyl)-2-oxoethyl]-1-ethyl-3-hydroxy-1,3-dihydro-2H-indol-2-one] | inhibited neurite outgrowth |  |  |
| CCc1cccc2c(C(C)=O)cn(Cc3ccc(C#N)cc3)c12 [compound 794, 4-[(3-acetyl-7-ethyl-1H-indol-1-yl)methyl]benzonitrile] | promoted neurite outgrowth |  |  |
| O=C(c1ccc(Cl)cc1)c1coc2ccc(O)cc12 [compound 5470, (4-chlorophenyl)(5-hydroxy-1-benzofuran-3-yl)methanone] | promoted neurite outgrowth | no effect | basal neurite outgrowth, E14 chick DRG neurons [1]: neurite outgrowth promoting effect |
| Cc1ccc2occ(C(=O)c3ccc(Cl)cc3)c(=O)c2c1 [compound 5472, 3-(4-chlorobenzoyl)-6-methyl-4H-chromen-4-one] | promoted neurite outgrowth |  |  |
| O=C(CC1(O)C(=O)Nc2ccc(Br)cc21)c1ccc(Cl)cc1 (centres unmarked) [compound 5475, 5-bromo-3-[2-(4-chlorophenyl)-2-oxoethyl]-3-hydroxy-1,3-dihydro-2H-indol-2-one] | inhibited neurite outgrowth |  |  |
| Acetyl-RIYKSVLQAVQKTDEGHPFKAYLELEITLSQEQ-Amide (Ac-RIYKSVLQAVQKTDEGHPFKAYLELEITLSQEQ-NH2) [NEP33] |  |  | inhibition of Nogo receptor:Nogo 66 interaction signal, DELFIA [4]: inhibit; inhibition of Nogo receptor:Nogo 66 interaction, ELISA [2]: inhibit; interference with Ng66:Fc-NgR interaction (AlphaScreen signal) (Fc-NgR:Ng66 interaction): reducing signal; inhibition of interaction of Ng66 and Fc-NgR (AlphaScreen signal) (Fc-NgR:Ng66 interaction; 20 hours incubation, concentration between 1.25 μM and 20 μM, beads 5 μg/ml): inhibited |
